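At the GI50, growth is halved. The concentration for full growth arrest is given as TGI.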
What was measured:
Experiment in all cases: NCI anticancer screen, dose series, 384-well format
SK-MEL-28 melanoma = system: SK-MEL-28 melanoma
UACC-62 melanoma = system: UACC-62 melanoma
A549 NSCLC = system: A549 NSCLC
RXF 393 renal = system: RXF 393 renal
T-47D breast = system: T-47D breast
MDA-MB-468 breast = system: MDA-MB-468 breast
TK-10 renal = system: TK-10 renal
CCRF-CEM leukemia = system: CCRF-CEM leukemia
SR leukemia = system: SR leukemia
SF-268 CNS = system: SF-268 CNS
MDA-MB-231 breast = system: MDA-MB-231 breast
NCI-H460 NSCLC = system: NCI-H460 NSCLC
IGROV1 ovarian = system: IGROV1 ovarian
SN12C renal = system: SN12C renal
NCI-H226 lung = system: NCI-H226 lung
HOP-62 NSCLC = system: HOP-62 NSCLC
OVCAR-8 ovarian = system: OVCAR-8 ovarian
ACHN renal = system: ACHN renal
M14 melanoma = system: M14 melanoma
SK-OV-3 ovarian = system: SK-OV-3 ovarian
U251 glioblastoma = system: U251 glioblastoma
K-562 leukemia = system: K-562 leukemia
SK-MEL-2 melanoma = system: SK-MEL-2 melanoma
EKVX NSCLC = system: EKVX NSCLC
CAKI-1 renal = system: CAKI-1 renal
SNB-19 CNS = system: SNB-19 CNS
NCI/ADR-RES ovarian = system: NCI/ADR-RES ovarian
786-0 renal = system: 786-0 renal
MCF7 breast = system: MCF7 breast
HT29 colon = system: HT29 colon
NCI-H322M lung = system: NCI-H322M lung
HL-60(TB) leukemia = system: HL-60(TB) leukemia
HOP-92 NSCLC = system: HOP-92 NSCLC
MDA-MB-435 melanoma = system: MDA-MB-435 melanoma
HCT-116 colon = system: HCT-116 colon
KM12 colon = system: KM12 colon
SF-539 CNS = system: SF-539 CNS
PC-3 prostate = system: PC-3 prostate
SK-MEL-5 melanoma = system: SK-MEL-5 melanoma
MALME-3M melanoma = system: MALME-3M melanoma
UACC-257 melanoma = system: UACC-257 melanoma
SF-295 CNS = system: SF-295 CNS
LOX IMVI melanoma = system: LOX IMVI melanoma
A498 renal = system: A498 renal
DU-145 prostate = system: DU-145 prostate
SNB-75 CNS = system: SNB-75 CNS
NCI-H23 lung = system: NCI-H23 lung

Structure (SMILES): C=CC(=O)Nc1cc(C)ccc1Nc1nc(Nc2cc(OC)ncc2C)ncc1C(F)(F)F
- GI50 (SK-MEL-28 melanoma): 86.6 nM
- TGI (SK-MEL-28 melanoma): 387 nM
- GI50 (UACC-62 melanoma): 59.9 nM
- TGI (UACC-62 melanoma): 381 nM
- GI50 (A549 NSCLC): 569 nM
- TGI (A549 NSCLC): 2050 nM
- GI50 (RXF 393 renal): 215 nM
- TGI (RXF 393 renal): 766 nM
- GI50 (T-47D breast): 813 nM
- TGI (T-47D breast): 5380 nM
- GI50 (MDA-MB-468 breast): 1150 nM
- TGI (MDA-MB-468 breast): 2570 nM
- GI50 (TK-10 renal): 328 nM
- TGI (TK-10 renal): 884 nM
- GI50 (CCRF-CEM leukemia): 1710 nM
- TGI (CCRF-CEM leukemia): 3400 nM
- GI50 (SR leukemia): 1790 nM
- TGI (SR leukemia): 3180 nM
- GI50 (SF-268 CNS): 1500 nM
- TGI (SF-268 CNS): 5940 nM
- GI50 (MDA-MB-231 breast): 283 nM
- TGI (MDA-MB-231 breast): 1100 nM
- GI50 (NCI-H460 NSCLC): 698 nM
- TGI (NCI-H460 NSCLC): 2720 nM
- GI50 (IGROV1 ovarian): 233 nM
- TGI (IGROV1 ovarian): 906 nM
- GI50 (SN12C renal): 321 nM
- TGI (SN12C renal): 2180 nM
- GI50 (NCI-H226 lung): 228 nM
- TGI (NCI-H226 lung): 1810 nM
- GI50 (HOP-62 NSCLC): 725 nM
- TGI (HOP-62 NSCLC): 2620 nM
- GI50 (OVCAR-8 ovarian): 1120 nM
- TGI (OVCAR-8 ovarian): 4190 nM
- GI50 (ACHN renal): 374 nM
- TGI (ACHN renal): 1820 nM
- GI50 (M14 melanoma): 35.5 nM
- TGI (M14 melanoma): 194 nM
- GI50 (SK-OV-3 ovarian): 621 nM
- TGI (SK-OV-3 ovarian): 4210 nM
- GI50 (U251 glioblastoma): 951 nM
- TGI (U251 glioblastoma): 2560 nM
- GI50 (K-562 leukemia): 1520 nM
- TGI (K-562 leukemia): > 100000 nM
- GI50 (SK-MEL-2 melanoma): 113 nM
- TGI (SK-MEL-2 melanoma): 271 nM
- GI50 (EKVX NSCLC): 300 nM
- TGI (EKVX NSCLC): 1620 nM
- GI50 (CAKI-1 renal): 401 nM
- TGI (CAKI-1 renal): 1440 nM
- GI50 (SNB-19 CNS): 786 nM
- TGI (SNB-19 CNS): 3430 nM
- GI50 (NCI/ADR-RES ovarian): 1030 nM
- TGI (NCI/ADR-RES ovarian): 2590 nM
- GI50 ([…]-0 renal): 853 nM
- TGI (786-0 renal): > 100000 nM
- GI50 (MCF7 breast): 690 nM
- TGI (MCF7 breast): 4130 nM
- GI50 (HT29 colon): 340 nM
- TGI (HT29 colon): 1520 nM
- GI50 (NCI-H322M lung): 570 nM
- TGI (NCI-H322M lung): 3890 nM
- GI50 (HL-60(TB) leukemia): 136 nM
- TGI (HL-60(TB) leukemia): 1070 nM
- GI50 (HOP-92 NSCLC): 282 nM
- TGI (HOP-92 NSCLC): 700 nM
- GI50 (MDA-MB-435 melanoma): 253 nM
- TGI (MDA-MB-435 melanoma): 1510 nM
- GI50 (HCT-116 colon): 206 nM
- TGI (HCT-116 colon): 562 nM
- GI50 (KM12 colon): 444 nM
- TGI (KM12 colon): > 100000 nM
- GI50 (SF-539 CNS): 362 nM
- TGI (SF-539 CNS): 1550 nM
- GI50 (PC-3 prostate): 1970 nM
- TGI (PC-3 prostate): 99700 nM
- GI50 (SK-MEL-5 melanoma): 147 nM
- TGI (SK-MEL-5 melanoma): 1970 nM
- GI50 (MALME-3M melanoma): 16.1 nM
- TGI (MALME-3M melanoma): 65.8 nM
- GI50 (UACC-257 melanoma): 117 nM
- TGI (UACC-257 melanoma): 390 nM
- GI50 (SF-295 CNS): 3610 nM
- TGI (SF-295 CNS): > 100000 nM
- GI50 (LOX IMVI melanoma): 169 nM
- TGI (LOX IMVI melanoma): 423 nM
- GI50 (A498 renal): 479 nM
- TGI (A498 renal): 1900 nM
- GI50 (DU-145 prostate): 865 nM
- TGI (DU-145 prostate): 3600 nM
- GI50 (SNB-75 CNS): 336 nM
- TGI (SNB-75 CNS): 1290 nM
- GI50 (NCI-H23 lung): 192 nM
- TGI (NCI-H23 lung): 661 nM
